Data reported in publication PMC13237026, “Structural basis for a central permeation pathway in the P2X1 receptor” (Cell Discovery, 2026).
Values belong to the molecule of their own block, whether it stands above or below them.

Assays:
[1] = target: T1, mP2X1 receptor (Mus musculus, UniProt P51576); test: cryo-EM structure of the complex; assay type: binding; set-up: gene P2rx1; full-length wild type; cryo-EM: Sf9, C-terminal His and Flag tags after HRV-3C site, homotrimer in LMNG; electrophysiology: HEK293, pCDNA3.1, labelled with mCherry
T1 sequence (P51576 1-399): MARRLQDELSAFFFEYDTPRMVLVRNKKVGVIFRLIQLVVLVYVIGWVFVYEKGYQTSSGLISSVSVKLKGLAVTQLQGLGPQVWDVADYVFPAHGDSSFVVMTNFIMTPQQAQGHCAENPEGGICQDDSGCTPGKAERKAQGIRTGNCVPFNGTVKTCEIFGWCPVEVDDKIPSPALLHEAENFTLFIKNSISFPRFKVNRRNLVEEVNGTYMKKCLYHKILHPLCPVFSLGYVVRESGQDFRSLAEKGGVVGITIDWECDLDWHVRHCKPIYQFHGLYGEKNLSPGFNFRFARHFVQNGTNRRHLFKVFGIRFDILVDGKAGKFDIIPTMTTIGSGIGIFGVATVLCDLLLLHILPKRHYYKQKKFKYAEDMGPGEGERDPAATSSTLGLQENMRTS

[2] = target: T2, mP2X1 receptor (Mus musculus, UniProt P51576, K190A); test: cell-based
T2 construct: gene P2rx1
T2 sequence (P51576 whole entry K190A): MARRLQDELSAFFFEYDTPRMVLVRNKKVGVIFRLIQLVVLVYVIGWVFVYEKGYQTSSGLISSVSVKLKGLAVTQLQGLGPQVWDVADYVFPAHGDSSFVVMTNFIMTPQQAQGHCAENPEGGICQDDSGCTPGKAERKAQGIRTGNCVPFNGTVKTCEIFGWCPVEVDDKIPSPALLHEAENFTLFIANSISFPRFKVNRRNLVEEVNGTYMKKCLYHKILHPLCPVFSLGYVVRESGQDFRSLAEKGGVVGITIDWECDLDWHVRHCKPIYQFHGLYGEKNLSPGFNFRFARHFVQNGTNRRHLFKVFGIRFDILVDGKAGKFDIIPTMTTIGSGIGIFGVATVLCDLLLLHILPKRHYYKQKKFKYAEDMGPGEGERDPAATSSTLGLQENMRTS

[3] = target: T1, mP2X1 receptor; test: cell-based; set-up: gene P2rx1
[4] = target: T3, mP2X1 receptor (Mus musculus, UniProt P51576, R139A); test: cell-based
T3 construct: gene P2rx1
T3 sequence (P51576 whole entry R139A): as the sequence (P51576 whole entry K190A) above, with R139A, A190K counted along it

[5] = target: T4, mP2X1 receptor (Mus musculus, UniProt P51576, K140A); test: cell-based
T4 construct: gene P2rx1
T4 sequence (P51576 whole entry K140A): as the sequence (P51576 whole entry K190A) above, with K140A, A190K counted along it

[6] = target: T1, mP2X1 receptor; test: whole-cell patch clamp, HEK293, ATP-evoked mixed-cation current; assay type: cell-based; set-up: gene P2rx1; full-length wild type; electrophysiology: HEK293, pCDNA3.1, labelled with mCherry
[7] = target: the molecule itself; test: cryo-EM structure; single-particle cryo-EM of purified mP2X1 in LMNG (20 mM HEPES pH 7.0, 150 mM NaCl, 0.002% LMNG), 4.0 mg/mL; without added Ca2+, with 1, 5 or 10 mM Ca2+, or with 5 mM Ca2+ and 10 uM BTFA

- EC50 [2]: 6.74 µM
- EC50 [3]: 0.829 µM
- EC50 [4]: 5.29 µM
- EC50 [5]: 10.3 µM
Molecule: Nc1ncnc2c1ncn2[C@@H]1O[C@H](COP(=O)(O)OP(=O)(O)OP(=O)(O)O)[C@@H](O)[C@H]1O [ATP]
- cryo-EM structure of the complex ([1]; co-purified ATP, no exogenous ATP or Ca2+ added, three ATP per trimer, orthosteric site): EM maps revealed the presence of three clear ATP molecules within the structures

- IC50 [6]: 4.3 µM
Molecule: Nc1cc(C(F)(F)F)cc(C(F)(F)F)c1 [BTFA, 3,5-bis(trifluoromethyl)aniline]
- cryo-EM structure of the complex ([1]; 10 μM BTFA, 5 mM Ca2+, allosteric, top of central vestibule): we determined the cryo-EM structure of the P2X1–BTFA complex

B1: full-length, wild-type mouse P2X1 (mP2X1) receptor (receptor, UniProt P51576 1-399, looked up)
chain: T1 sequence (P51576 1-399)
notes: mouse P2X1 receptor (P2RX1), wild type, full length, cloned from mouse olfactory cortex cDNA; His tag and Flag tag at the C-terminus are connected by an HRV-3C protease recognition site; no cleavage is described; N-linked glycosylation is observed; also called P2RX1; P2XR1; not shown: Flag (1x), C-terminal, kept
- stoichiometry N [7]: 3
